SMILES strings stand for the structures.

IC50 data for 20 compounds are collected here from patent US20260137703A1, “2-AMINO-PYRIDO[2,3-D]PYRIMIDIN-7(8H)-ONE AND 7-AMINO-1-PYRIMIDO[4,5-D]PYRIMIDIN-2(1 H)-ONE DERIVATIVES AS EGFR INHIBITORS FOR THE TREATMENT OF CANCER” (Cancer Research Technology Limited, priority 2022, published 2026).

Experiment [1] has as its target CtermHisTag-mEGFR Wild type (Homo sapiens, UniProt P00533). Kind of experiment: biochemical.
Experiment [2] concerns the target T1, Phospho-EGFR (Tyr1068) in A431 cells (Homo sapiens, UniProt P00533).
T1 construct: endogenous in cells; host or cells: A431
Kind of experiment: HTRF pEGFR/total EGFR in A431 cells with EGF stimulation. It counts as cell-based. Particulars: ratio pEGFR/total EGFR, compound 2.5 hours then 100 ng/ml EGF 30 mins. A digest of the protocol:
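Values are pEGFR(Tyr1068)/total EGFR HTRF ratios (665/620 nm) given as percent of the 0 μM control. Adhered A431 cells (20,000 per well, 24 h) had 2.5 h compound pretreatment in 0.1% DMSO, then 30 min of 100 ng/ml EGF before lysis.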

In experiment [3] the target is T2, Phospho-EGFR (Tyr1068) in H1975 C797S cells (CRISPR-edited EGFR C797S) (Homo sapiens, UniProt P00533, C797S/L858R/T790M).
T2 construct: host or cells: H1975 C797S (CRISPR-edited)
Kind of experiment: HTRF pEGFR/total EGFR in H1975 C797S cells. It counts as cell-based. The note with it: ratio pEGFR/total EGFR, compound 3 hours. A digest of the protocol: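 Readout is the HTRF-measured Tyr1068 phospho-EGFR to total EGFR ratio, normalised to the 0 μM control as percent. Preceding this, CRISPR-edited H1975 C797S cells, plated 24 h earlier, were exposed 3 h to duplicate compound doses in medium with 0.1% DMSO, then lysed on a shaker.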
(In general: In TR-FRET formats the signal depends on donor and acceptor labels being close together.)

Experiment [4] concerns the target T3, Phospho-EGFR (Tyr1068) in H1975 cells (Homo sapiens, UniProt P00533, L858R/T790M).
T3 construct: host or cells: H1975
Put plainly: HTRF pEGFR/total EGFR in H1975 cells. Particulars: ratio pEGFR/total EGFR, compound 3 hours. The experiment is classed as cell-based. A digest of the protocol: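 Readout is the phospho-EGFR (Tyr1068) to total EGFR HTRF ratio, expressed relative to 0 μM control. Adhered H1975 cells were exposed to compound for 3 hours at 0.1% DMSO, duplicate wells, then lysed for 30 min at room temperature before two-wavelength fluorescence reading.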

T3 sequence (P00533 25-1210 T790M/L858R): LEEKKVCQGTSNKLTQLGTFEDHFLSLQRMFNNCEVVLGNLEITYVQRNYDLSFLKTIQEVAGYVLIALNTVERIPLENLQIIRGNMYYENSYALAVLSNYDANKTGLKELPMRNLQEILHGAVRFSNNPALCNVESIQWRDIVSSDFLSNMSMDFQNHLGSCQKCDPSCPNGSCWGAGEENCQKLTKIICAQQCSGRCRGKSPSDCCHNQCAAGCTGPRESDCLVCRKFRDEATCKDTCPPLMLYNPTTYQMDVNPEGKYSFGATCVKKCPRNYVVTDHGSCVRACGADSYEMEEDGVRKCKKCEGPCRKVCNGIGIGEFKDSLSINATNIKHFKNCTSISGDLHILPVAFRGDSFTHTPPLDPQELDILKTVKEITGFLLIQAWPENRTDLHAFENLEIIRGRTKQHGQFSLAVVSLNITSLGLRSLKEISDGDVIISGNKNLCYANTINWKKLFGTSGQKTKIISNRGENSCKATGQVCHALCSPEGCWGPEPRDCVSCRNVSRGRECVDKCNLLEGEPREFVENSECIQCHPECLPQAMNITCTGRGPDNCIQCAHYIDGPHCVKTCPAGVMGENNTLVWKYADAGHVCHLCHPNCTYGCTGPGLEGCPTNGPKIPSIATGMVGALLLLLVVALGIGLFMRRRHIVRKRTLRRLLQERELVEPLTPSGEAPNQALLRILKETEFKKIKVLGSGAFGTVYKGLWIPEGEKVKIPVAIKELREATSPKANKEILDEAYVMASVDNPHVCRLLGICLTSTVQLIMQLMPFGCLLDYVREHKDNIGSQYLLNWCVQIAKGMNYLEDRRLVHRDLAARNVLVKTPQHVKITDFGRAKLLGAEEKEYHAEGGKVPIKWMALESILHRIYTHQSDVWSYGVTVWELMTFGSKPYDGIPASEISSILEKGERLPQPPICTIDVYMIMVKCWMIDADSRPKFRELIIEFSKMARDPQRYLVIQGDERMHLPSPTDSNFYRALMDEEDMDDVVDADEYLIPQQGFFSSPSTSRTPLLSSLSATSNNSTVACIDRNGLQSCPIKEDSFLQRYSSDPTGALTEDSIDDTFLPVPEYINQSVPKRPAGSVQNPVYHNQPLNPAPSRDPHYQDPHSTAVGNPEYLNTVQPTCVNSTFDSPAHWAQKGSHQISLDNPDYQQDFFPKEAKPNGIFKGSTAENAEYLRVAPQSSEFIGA
T2 sequence (P00533 25-1210 T790M/C797S/L858R): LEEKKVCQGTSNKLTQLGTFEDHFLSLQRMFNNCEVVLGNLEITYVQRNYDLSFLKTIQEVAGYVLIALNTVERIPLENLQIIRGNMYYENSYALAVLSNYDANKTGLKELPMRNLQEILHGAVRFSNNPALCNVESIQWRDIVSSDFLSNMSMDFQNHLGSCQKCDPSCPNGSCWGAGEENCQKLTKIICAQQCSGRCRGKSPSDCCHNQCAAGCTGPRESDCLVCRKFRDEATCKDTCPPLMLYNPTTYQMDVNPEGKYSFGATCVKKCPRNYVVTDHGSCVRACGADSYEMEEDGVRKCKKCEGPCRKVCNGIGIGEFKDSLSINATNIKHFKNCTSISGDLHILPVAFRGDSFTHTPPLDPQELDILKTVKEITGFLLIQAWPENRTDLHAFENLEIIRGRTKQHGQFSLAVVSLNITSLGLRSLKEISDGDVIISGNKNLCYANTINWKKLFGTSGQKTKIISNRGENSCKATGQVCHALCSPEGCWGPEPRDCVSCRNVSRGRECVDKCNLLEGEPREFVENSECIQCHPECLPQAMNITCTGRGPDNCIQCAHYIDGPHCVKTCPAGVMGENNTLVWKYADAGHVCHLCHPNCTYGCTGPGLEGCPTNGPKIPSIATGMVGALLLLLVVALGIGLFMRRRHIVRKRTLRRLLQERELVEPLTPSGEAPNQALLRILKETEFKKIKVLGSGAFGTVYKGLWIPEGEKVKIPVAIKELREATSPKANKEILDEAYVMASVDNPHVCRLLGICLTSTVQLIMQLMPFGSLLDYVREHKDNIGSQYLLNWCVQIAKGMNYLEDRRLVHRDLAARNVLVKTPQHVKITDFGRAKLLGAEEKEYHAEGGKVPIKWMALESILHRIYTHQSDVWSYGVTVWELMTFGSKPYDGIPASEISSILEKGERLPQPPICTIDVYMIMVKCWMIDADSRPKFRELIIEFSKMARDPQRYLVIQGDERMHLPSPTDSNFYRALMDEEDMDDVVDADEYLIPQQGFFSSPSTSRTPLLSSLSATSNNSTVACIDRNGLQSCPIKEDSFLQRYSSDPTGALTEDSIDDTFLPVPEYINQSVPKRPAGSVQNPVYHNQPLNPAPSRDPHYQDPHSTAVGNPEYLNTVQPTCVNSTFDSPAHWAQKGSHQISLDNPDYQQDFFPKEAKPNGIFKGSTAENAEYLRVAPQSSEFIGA
T1 sequence (P00533 25-1210): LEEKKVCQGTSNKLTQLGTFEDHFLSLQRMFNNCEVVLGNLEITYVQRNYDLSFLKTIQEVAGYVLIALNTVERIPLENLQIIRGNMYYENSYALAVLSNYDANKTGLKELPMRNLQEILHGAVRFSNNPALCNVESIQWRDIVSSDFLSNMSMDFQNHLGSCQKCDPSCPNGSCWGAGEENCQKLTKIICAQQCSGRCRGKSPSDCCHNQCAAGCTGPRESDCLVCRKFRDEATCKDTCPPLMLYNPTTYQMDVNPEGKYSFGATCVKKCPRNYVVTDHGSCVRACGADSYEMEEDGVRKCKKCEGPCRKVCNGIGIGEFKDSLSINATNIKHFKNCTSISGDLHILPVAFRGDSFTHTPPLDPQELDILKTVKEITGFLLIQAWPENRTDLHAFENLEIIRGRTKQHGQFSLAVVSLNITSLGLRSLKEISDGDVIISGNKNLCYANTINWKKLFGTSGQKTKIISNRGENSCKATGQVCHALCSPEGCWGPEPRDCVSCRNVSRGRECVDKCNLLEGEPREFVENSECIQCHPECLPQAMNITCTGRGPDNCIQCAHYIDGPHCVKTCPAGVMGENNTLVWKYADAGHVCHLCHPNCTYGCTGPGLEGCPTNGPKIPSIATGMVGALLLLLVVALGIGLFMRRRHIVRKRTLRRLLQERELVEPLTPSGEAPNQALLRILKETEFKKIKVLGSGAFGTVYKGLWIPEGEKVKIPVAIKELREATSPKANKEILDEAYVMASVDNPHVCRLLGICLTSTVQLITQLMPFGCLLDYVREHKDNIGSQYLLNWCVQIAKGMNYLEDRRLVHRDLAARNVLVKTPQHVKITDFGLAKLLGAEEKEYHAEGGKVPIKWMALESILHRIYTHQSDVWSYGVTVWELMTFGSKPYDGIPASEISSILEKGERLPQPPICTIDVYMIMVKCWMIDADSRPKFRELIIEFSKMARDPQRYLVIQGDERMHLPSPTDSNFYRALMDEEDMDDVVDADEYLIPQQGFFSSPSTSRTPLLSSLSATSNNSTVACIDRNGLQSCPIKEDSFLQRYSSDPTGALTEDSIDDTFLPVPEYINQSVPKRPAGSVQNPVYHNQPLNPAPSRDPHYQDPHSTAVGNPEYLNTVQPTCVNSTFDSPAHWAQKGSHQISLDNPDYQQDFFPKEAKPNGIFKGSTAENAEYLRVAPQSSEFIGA
CtermHisTag-mEGFR Wild type, sequence (P00533 whole entry): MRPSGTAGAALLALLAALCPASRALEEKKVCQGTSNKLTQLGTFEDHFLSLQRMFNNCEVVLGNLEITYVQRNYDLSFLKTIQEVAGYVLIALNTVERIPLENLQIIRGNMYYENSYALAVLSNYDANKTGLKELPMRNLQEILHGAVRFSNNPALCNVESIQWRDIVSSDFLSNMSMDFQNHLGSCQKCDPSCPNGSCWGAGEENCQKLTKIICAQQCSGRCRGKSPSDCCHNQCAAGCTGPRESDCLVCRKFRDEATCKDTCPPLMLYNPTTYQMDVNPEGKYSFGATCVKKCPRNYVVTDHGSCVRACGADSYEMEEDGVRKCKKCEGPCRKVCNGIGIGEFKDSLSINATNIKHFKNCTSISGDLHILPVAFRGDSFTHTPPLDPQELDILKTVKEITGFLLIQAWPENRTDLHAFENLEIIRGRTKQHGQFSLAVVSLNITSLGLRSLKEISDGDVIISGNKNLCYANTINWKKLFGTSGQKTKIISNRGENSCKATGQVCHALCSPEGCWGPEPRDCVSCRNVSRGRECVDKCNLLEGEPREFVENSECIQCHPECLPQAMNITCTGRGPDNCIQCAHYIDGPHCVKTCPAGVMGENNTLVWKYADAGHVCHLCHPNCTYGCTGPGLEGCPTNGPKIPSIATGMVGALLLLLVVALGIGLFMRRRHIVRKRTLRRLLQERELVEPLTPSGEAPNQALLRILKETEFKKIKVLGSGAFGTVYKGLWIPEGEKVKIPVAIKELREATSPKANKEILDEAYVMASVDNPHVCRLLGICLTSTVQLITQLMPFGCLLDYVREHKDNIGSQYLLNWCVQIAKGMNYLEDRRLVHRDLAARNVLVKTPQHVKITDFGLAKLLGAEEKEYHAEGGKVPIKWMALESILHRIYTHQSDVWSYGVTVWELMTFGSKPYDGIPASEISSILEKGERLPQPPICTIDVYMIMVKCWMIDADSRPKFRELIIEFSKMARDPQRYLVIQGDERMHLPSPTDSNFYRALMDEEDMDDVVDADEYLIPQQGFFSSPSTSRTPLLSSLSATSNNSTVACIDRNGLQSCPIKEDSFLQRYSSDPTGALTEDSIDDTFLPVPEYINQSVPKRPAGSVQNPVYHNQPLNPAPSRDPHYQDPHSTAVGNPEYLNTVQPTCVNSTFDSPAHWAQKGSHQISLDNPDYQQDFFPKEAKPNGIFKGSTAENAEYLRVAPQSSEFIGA

Broadly, the IC50 is the concentration that inhibits the measured activity by half. In the case of `C#Cc1cc(=O)n(-c2ccccc2)c2nc(Nc3ccc(N4CCC(N5CC(F)(CO)C5)CC4)cc3)ncc12` [Example 30, 5-Ethynyl-2-[(4-{4-[3-fluoro-3-(hydroxymethyl)azetidin-1-yl]piperidin-1-yl}phenyl)amino]-8-phenylpyrido[2,3-d]pyrimidin-7-one], the IC50 in experiment [1] was below 1000 nM; in experiment [2], above 3 µM; in experiment [3], below 500 nM; in experiment [4], below 500 nM.

`C#Cc1cc(=O)n2c3nc(ncc13)Nc1ccc(N3CCN(C)CC3)c(c1)CCOCC2` [Example 240, 1^5-Ethynyl-3^4-(4-methylpiperazin-1-yl)-1^7,1^8-dihydro-6-oxa-2-aza-1(2,8)-pyrido[2,3-d]pyrimidina-3(1,3)-benzenacyclooctaphan-1^7-one]: the IC50 in experiment [1] is below 1000 nM; in experiment [2] it was 1 to 3 µM; in experiment [3], below 500 nM; in experiment [4], below 500 nM.

As for `C#Cc1c(Nc2ccccc2)c(=O)n(C)c2nc(Nc3ccc(N(C)CCN(C)C)cc3)ncc12` [Example 144, 2-[(4-{[2-(dimethylamino)ethyl](methyl)amino}phenyl)amino]-5-ethynyl-8-methyl-6-(phenylamino)pyrido[2,3-d]pyrimidin-7-one], the IC50 in experiment [1] is below 1000 nM; in experiment [2], below 0.5 µM; in experiment [3], 1000 to 3000 nM; in experiment [4] it was 1000 to 3000 nM.

Take `C#Cc1cc(=O)n(-c2ccc(NC(=O)CC)cc2)c2nc(Nc3ccccc3OC)ncc12` [Example 65, N-(4-(5-Ethynyl-2-((2-methoxyphenyl)amino)-7-oxopyrido[2,3-d]pyrimidin-7(8H)-yl)phenyl)propionamide]: the IC50 was 1000 to 10000 nM in experiment [1], above 3 µM in experiment [2], above 3000 nM in experiment [3] and above 3000 nM in experiment [4].

Regarding `C#Cc1cc(=O)n(C2CCNC2)c2nc(Nc3ccc(N4CCN(C)CC4)cc3)ncc12` (centres unmarked) [Example 106, 5-ethynyl-2-{[4-(4-methylpiperazin-1-yl)phenyl]amino}-8-(pyrrolidin-3-yl)pyrido[2,3-]pyrimidin-7-one], the IC50 in experiment [1] was above 10000 nM; in experiment [2] it was above 3 µM; in experiment [3] it was 1000 to 3000 nM; in experiment [4], 1000 to 3000 nM.

For `C#Cc1cc(=O)n(-c2ccccc2)c2nc(Nc3ccc(N4CCNCC4)cc3)ncc12` [Example 14, 5-Ethynyl-8-phenyl-2-{[4-(piperazin-1-yl)phenyl]amino}pyrido[2,3-d]pyrimidin-7-one], the IC50 in experiment [1] was below 1000 nM; in experiment [2] it was above 3 µM; in experiment [3], below 500 nM; in experiment [4] it was below 500 nM.

`C#Cc1cc(=O)n(-c2ccc(NC(=O)COC(C)=O)cc2)c2nc(Nc3ccccc3OC)ncc12` [Example 64, 2-((4-(5-Ethynyl-2-((2-methoxyphenyl)amino)-7-oxopyrido[2,3-d]pyrimidin-8(7H)-yl)phenyl)amino)-2-oxoethyl acetate]: the IC50 was 1000 to 10000 nM in experiment [1], above 3 µM in experiment [2], above 3000 nM in experiment [3] and above 3000 nM in experiment [4].

In the case of `C#Cc1cc(=O)n2c3nc(ncc13)Nc1ccc(N3CCN(C)CC3)c(c1)OCCCC2` [Example 189, 1^5-ethynyl-3^4-(4-methylpiperazin-1-yl)-1^7,1^8-dihydro-4-oxa-2-aza-1(2,8)-pyrido[2,3-d]pyrimidina-3(1,3)-benzenacyclooctaphan-1^7-one], the IC50 was below 1000 nM in experiment [1], 0.5 to 1 µM in experiment [2], below 500 nM in experiment [3] and below 500 nM in experiment [4].

`C#Cc1c(-c2cccc(F)c2Cl)c(=O)n(C)c2nc(Nc3ccc(N(C)CCN(C)C)cc3)ncc12` [Example 135, 6-(2-chloro-3-fluorophenyl)-2-[(4-{[2-(dimethylamino)ethyl](methyl)amino}phenyl)amino]-5-ethynyl-8-methylpyrido[2,3-d]pyrimidin-7-one]: the IC50 in experiment [1] was below 1000 nM; in experiment [2], 1 to 3 µM; in experiment [3] it was 500 to 1000 nM; in experiment [4] it was 500 to 1000 nM.

As for `C#Cc1cc(=O)n2c3nc(ncc13)Nc1ccc(N3CCN(C)CC3)c(c1)COCCC2` [Example 196, 1^5-Ethynyl-34-(4-methylpiperazin-1-yl)-1^7, 1^8-dihydro-5-oxa-2-aza-1(2,8)-pyrido[2,3-d]pyrimidina-3(1,3)-benzenacyclooctaphan-1^7-one], the IC50 in experiment [1] was above 10000 nM; in experiment [2], above 3 µM; in experiment [3], above 3000 nM; in experiment [4], above 3000 nM.

Regarding `C#Cc1cc(=O)n(-c2ccccc2)c2nc(Nc3cnn(C)c3)ncc12` [Example 25, 5-Ethynyl-2-[(1-methylpyrazol-4-yl)amino]-8-phenylpyrido[2,3-d]pyrimidin-7-one], the IC50 is below 1000 nM in experiment [1], above 3 µM in experiment [2], 1000 to 3000 nM in experiment [3] and 1000 to 3000 nM in experiment [4].

Turning to `C#Cc1cc(=O)n(C)c2nc(Nc3ccc(N4CCN(C)CC4)c(OCCC4CCCC4)c3)ncc12` [Example 209, 2-((3-(2-Cyclopentylethoxy)-4-(4-methylpiperazin-1-yl)phenyl)amino)-5-ethynyl-8-methylpyrido[2,3-d]pyrimidin-7(8H)-one], the IC50 in experiment [1] was below 1000 nM; in experiment [2], below 0.5 µM; in experiment [3], below 500 nM; in experiment [4] it was below 500 nM.

Take `C#Cc1c(C)c(=O)n(Cc2ccno2)c2nc(Nc3ccc(N4CCN(C)CC4)cc3)ncc12` [Example 113, 5-ethynyl-6-methyl-2-{[4-(4-methylpiperazin-1-yl)phenyl]amino}-8-(1,2-oxazol-5-ylmethyl)pyrido[2,3-d]pyrimidin-7-one]: the IC50 in experiment [1] is 1000 to 10000 nM; in experiment [2], 1 to 3 µM; in experiment [3], 1000 to 3000 nM; in experiment [4] it was 1000 to 3000 nM.

For the compound `C#Cc1cc(=O)n([C@H]2CC[C@H](NC(=O)c3ccnnc3)CC2)c2nc(Nc3ccc(N4CCN(C)CC4)cc3)ncc12` [Example 89, N-[(1r,4r)-4-(5-Ethynyl-2-{[4-(4-methylpiperazin-1-yl)phenyl]amino}-7-oxopyrido[2,3-d]pyrimidin-8-yl)cyclohexyl]pyridazine-4-carboxamide], the IC50 was below 1000 nM in experiment [1], above 3 µM in experiment [2], below 500 nM in experiment [3] and below 500 nM in experiment [4].

Take `C#Cc1cc(=O)n(-c2ccccc2)c2nc(Nc3ccc(N4CCC(N5CCN(C)CC5)CC4)cc3)ncc12` [Example 23, 5-Ethynyl-2-({4-[4-(4-methylpiperazin-1-yl)piperidin-1-yl]phenyl}amino)-8-phenylpyrido[2,3-d]pyrimidin-7-one]: the IC50 in experiment [1] is below 1000 nM; in experiment [2], 1 to 3 µM; in experiment [3], below 500 nM; in experiment [4], below 500 nM.

Turning to `C#Cc1cc(=O)n(Cc2ccn(C)n2)c2nc(Nc3ccc(N4CCN(C)CC4)c(OCCC4CCCC4)c3)ncc12` [Example 210, 2-((3-(2-Cyclopentylethoxy)-4-(4-methylpiperazin-1-yl)phenyl)amino)-5-ethynyl-8-((1-methyl-1H-pyrazol-3-yl)methyl)pyrido[2,3-d]pyrimidin-7(8H)-one], the IC50 in experiment [1] was below 1000 nM; in experiment [2] it was above 3 µM; in experiment [3], below 500 nM; in experiment [4] it was below 500 nM.

Regarding `C=Cc1cc(=O)n(-c2ccc(OC)cc2)c2nc(Nc3ccccc3OC)ncc12` [Example 157, 8-(4-Methoxyphenyl)-2-((2-methoxyphenyl)amino)-5-vinylpyrido[2,3-d]pyrimidin-7(8H)-one], the IC50 in experiment [1] was above 10000 nM; in experiment [2] it was above 3 µM; in experiment [3] it was above 3000 nM; in experiment [4], above 3000 nM.

On to `C#Cc1cc(=O)n(CC2CCCC2)c2nc(Nc3ccc(N4CCN(C)CC4)cc3)ncc12` [Example 67, 8-(Cyclopentylmethyl)-5-ethynyl-2-((4-(4-methylpiperazin-1-yl)phenyl)amino)pyrido[2,3-d]pyrimidin-7(8H)-one], for which the IC50 in experiment [1] is below 1000 nM; in experiment [2] it was 1 to 3 µM; in experiment [3], below 500 nM; in experiment [4], below 500 nM.

In the case of `C#Cc1cc(=O)n(C)c2nc(Nc3ccc(N(C)CCN(C)C)cc3)ncc12` [Example 43, 2-[(4-{[2-(Dimethylamino)ethyl](methyl)amino}phenyl)amino]-5-ethynyl-8-methylpyrido[2,3-d]pyrimidin-7-one], the IC50 in experiment [1] was 1000 to 10000 nM; in experiment [2] it was above 3 µM; in experiment [3] it was below 500 nM; in experiment [4], below 500 nM.

With `C#Cc1cc(=O)n2c3nc(ncc13)Nc1ccc(N3CCCN(C)CC3)c(c1)NC(=O)CCC2` [Example 238, 1^5-Ethynyl-3^4-(4-methyl-1,4-diazepan-1-yl)-1^7,1^8-dihydro-2,4-diaza-1(2,8)-pyrido[2,3-d]pyrimidina-3(1,3)-benzenacyclooctaphane-1^7,5-dione], the 50% inhibitory concentration (IC50) in experiment [1] is below 1000 nM; in experiment [2], above 3 µM; in experiment [3], below 500 nM; in experiment [4] it was below 500 nM.
